Data: ChEMBL document CHEMBL1149383, “Discovery of a daunorubicin analogue that exhibits potent antitumor activity and overcomes P-gp-mediated drug resistance” (J Med Chem, 2006)
The source made the active and inactive calls. The calls are words filed in the database; no cut-off is given here.

What was measured:
Mus musculus [1] = experiment: Survival in mice with Dox-resistant K562 xenografts after 50 days at 5-10 mg/kg, ip; assay type: functional
K562 [2] = experiment: Drug resistance index, ratio of IC50 in Dox-resistant K562 cells over Dox-sensitive cells; assay type: functional, Homo sapiens
KB 3-1 [3] = experiment: Cytotoxicity against human epidermoid carcinoma KB-3-1 cells; assay type: functional, cell-based
K562 [4] = experiment: Increase in the level of drug uptake in Dox-resistant K562 cells in presence of cyclosporine over its absence; assay type: functional, cell-based; details: Homo sapiens
K562 [5] = experiment: Increase in cytotoxicity against Dox-resistant K562 cells in presence of Cyclosporine over its absence; assay type: functional, cell-based; details: Homo sapiens
K562 [6] = experiment: Increase in the level of drug efflux in Dox-resistant K562 cells in presence of cyclosporine over its absence; assay type: functional, cell-based; details: Homo sapiens
KB 3-1 [7] = experiment: Cytotoxicity against drug resistant KB-V cells; assay type: functional, cell-based; details: Homo sapiens
Mus musculus [8] = experiment: Mortality in mice with Dox-resistant K562 xenografts in 20 days at 5-10 mg/kg, ip; assay type: functional
K562 [9] = experiment: Cytotoxicity against Dox-resistant K562 cells by MTS at 1 uM and in presence of cyclosporine; assay type: functional, Homo sapiens
K562 [10] = experiment: Cytotoxicity against Dox-resistant K562 cells by MTS at 1 uM and in absence of cyclosporine; assay type: functional, Homo sapiens
K562 [11] = experiment: Cytotoxicity against Dox-resistant K562 cells by MTS; assay type: functional, cell-based; details: Homo sapiens

| Compound | Ratio IC50 (K562 [2]) | Activity (K562 [4]) | Activity (K562 [6]) | further results |
| --- | --- | --- | --- | --- |
| COc1cccc2c1C(=O)c1c(O)c3c(c(O)c1C2=O)C[C@@](O)(C(C)=O)C[C@@H]3O[C@H]1C[C@H](N=[N+]=[N-])[C@H](O)[C@H](C)O1 | 13 | inactive | inactive | Activity (Mus musculus [1]): 100%; IC50 (KB 3-1 [3]): 300 nM; Activity (K562 [5]): inactive; IC50 (KB 3-1 [7]): 300 nM |
| COc1cccc2c1C(=O)c1c(O)c3c(c(O)c1C2=O)C[C@@](O)(C(C)=O)C[C@@H]3O[C@H]1C[C@H](n2cc(CO)nn2)[C@H](O)[C@H](C)O1 | – | inactive | inactive | – |
| COc1cccc2c1C(=O)c1c(O)c3c(c(O)c1C2=O)C[C@@](O)(C(C)=O)C[C@@H]3O[C@H]1C[C@H](n2cc(CCCO)nn2)[C@H](O)[C@H](C)O1 | – | inactive | inactive | – |
| COc1cccc2c1C(=O)c1c(O)c3c(c(O)c1C2=O)C[C@@](O)(C(C)=O)C[C@@H]3O[C@H]1C[C@H](N)[C@H](O)[C@H](C)O1 [DAUNORUBICIN] | 333 | Active | Active | Activity (Mus musculus [8]): 50%; Activity (K562 [9]): 70%; Activity (K562 [10]): 30%; IC50 (K562 [11]): > 5 µM |
| COc1cccc2c1C(=O)c1c(O)c3c(c(O)c1C2=O)C[C@@](O)(C(C)=O)C[C@@H]3O[C@H]1C[C@H](n2cc(CCO)nn2)[C@H](O)[C@H](C)O1 | – | inactive | inactive | – |
| COc1cccc2c1C(=O)c1c(O)c3c(c(O)c1C2=O)C[C@@](O)(C(C)=O)C[C@@H]3O[C@H]1C[C@H](n2cc(CCCCO)nn2)[C@H](O)[C@H](C)O1 | – | inactive | inactive | – |
